The values that follow come from US4205170A, “Propionic acid derivatives” (priority 1976, dated 1980).

This assay has as its system edema in the hind paws (carrageenan). Nature of the assay: carrageenan-induced hind paw edema, oral administration. Conditions: Rattus norvegicus; for inhibition in vivo at 8 mg/kg: 8 mg/kg orally. In kind it is in vivo, male Wistar rats. The method, then: That is, male Wistar rats weighing about 100 g, one group consisting of 5 to 7 animals, were given orally the compounds according to the present invention and then edema was induced in the hind paws by subcutaneous injections of 0.1 ml of 1% carrageenan 1 hour after the administration of the test compounds, and the volumes of the hind paws were measured by a volume differential meter.
Background: The carrageenan paw model is a standard test of acute inflammation.

Setting [1] is: 10 mg/kg orally, 1 hr, read-out: Inhibition (%) 1 hr.
Setting [2] is: 10 mg/kg orally, 2 hr, read-out: Inhibition (%) 2 hr.
Setting [3] is: 10 mg/kg orally, 3 hr, read-out: Inhibition (%) 3 hr.
The mark [4] stands for this setting: 10 mg/kg orally, 4 hr, read-out: Inhibition (%) 4 hr.
[5] abbreviates: 10 mg/kg orally, 5 hr, read-out: Inhibition (%) 5 hr.
The mark [6] stands for this setting: 10 mg/kg orally, 6 hr, read-out: Inhibition (%) 6 hr.
[7] abbreviates: 1 h, read-out: Inhibition (%) 1 hr.
Where [8] appears, read: 2 h, read-out: Inhibition (%) 2 hr.
The mark [9] stands for this setting: 3 h, read-out: Inhibition (%) 3 hr.
Setting [10] is: 4 h, read-out: Inhibition (%) 4 hr.
Setting [11] is: 5 h, read-out: Inhibition (%) 5 hr.
Where [12] appears, read: 6 h, read-out: Inhibition (%) 6 hr.

Each structure is given as a SMILES string. Read-outs that look alike come from different tables or passages of the source.

For the compound `CC(C(N)=O)c1ccc2c(c1)C(=O)Cc1ccccc1S2` (stereo not drawn) [Compound 1, 2-(10,11-dihydro-11-oxodibenzo[b,f]thiepin-2-yl)-propionamide], the inhibition in vivo at 10 mg/kg under setting [1] stood at 47.1%; the inhibition in vivo at 10 mg/kg under setting [2] was 66.7%; the inhibition in vivo at 10 mg/kg under setting [3] amounted to 70.5%; the inhibition in vivo at 10 mg/kg under setting [4] was 73.6%; the inhibition in vivo at 10 mg/kg under setting [5] is 68%; the inhibition in vivo at 10 mg/kg under setting [6] turned out to be 66%.
Take `CC(C(=O)O)c1ccc2c(c1)C(=O)Cc1ccccc1S2` (stereo not drawn) [Compound 2, 2-(10,11-dihydro-11-oxodibenzo[b,f]thiepin-2-yl)-propionic acid]: the inhibition in vivo at 1 mg/kg is, setting by setting: under setting [7], 53.8%; under setting [8], 57.3%; under setting [9], 70.9%; under setting [10], 69.6%; under setting [11], 68.7%; under setting [12], 65.6%. The inhibition in vivo at 10 mg/kg by setting is: under setting [7], 55%; under setting [8], 76.3%; under setting [9], 78%; under setting [10], 78.5%; under setting [11], 74.8%; under setting [12], 70%.
For the compound `CCOC(=O)C(C)c1ccc2c(c1)C(=O)Cc1ccccc1S2` (stereo not drawn) [Compound 3, Ethyl 2-(10,11-dihydro-11-oxodibenzo[b,f]thiepin-2-yl)-propionate], the inhibition in vivo at 10 mg/kg under setting [1] worked out at 62.3%; the inhibition in vivo at 10 mg/kg under setting [2] was determined as 72%; the inhibition in vivo at 10 mg/kg under setting [3] was 79.9%; the inhibition in vivo at 10 mg/kg under setting [4] stood at 78.2%; the inhibition in vivo at 10 mg/kg under setting [5] is 74.5%; the inhibition in vivo at 10 mg/kg under setting [6] came to 64.5%.
`CC(C(=O)O)c1ccc2c(c1)CCc1ccccc1S2` (stereo not drawn) [Compound 4, 2-(10,11-dihydrodibenzo[b,f]thiepin-2-yl)-propionic acid]: the inhibition in vivo at 10 mg/kg reads like this: under setting [1], 47.2%; under setting [2], 58.8%; under setting [3], 54.6%; under setting [4], 48.3%; under setting [5], 41%; under setting [6], 35%.
Regarding `CCOC(=O)C(C)c1ccc2c(c1)CCc1ccccc1S2` (stereo not drawn) [Compound 5, Ethyl 2-(10,11-dihydrodibenzo[b,f]thiepin-2-yl)-propionate], the inhibition in vivo at 10 mg/kg was determined as 56.6% under setting [1]; 68% under setting [2]; 67.4% under setting [3]; 52.2% under setting [4]; 38.7% under setting [5]; 29.3% under setting [6].
On to `CC(C(=O)O)c1ccc2c(c1)Sc1ccccc1CC2=O` (stereo not drawn) [Compound 6, 2-(10,11-dihydro-11-oxodibenzo[b,f]thiepin-3-yl)-propionic acid], for which the inhibition in vivo at 10 mg/kg is 65.9% under setting [1]; 41.5% under setting [2]; 31.8% under setting [3]; 26.1% under setting [4]; 22.3% under setting [5]; 20.5% under setting [6].
`CCOC(=O)C(C)c1ccc2c(c1)Sc1ccccc1CC2=O` (stereo not drawn) [Compound 7, Ethyl 2-(10,11-dihydro-11-oxodibenzo[b,f]thiepin-3-yl)-propionate]: the inhibition in vivo at 10 mg/kg under setting [1] came to 58.7%; the inhibition in vivo at 10 mg/kg under setting [2] was found to be 39.6%; the inhibition in vivo at 10 mg/kg under setting [3] was 31.2%; the inhibition in vivo at 10 mg/kg under setting [4] stood at 25.9%; the inhibition in vivo at 10 mg/kg under setting [5] worked out at 22.3%; the inhibition in vivo at 10 mg/kg under setting [6] worked out at 18.8%.
As for `CCOC(=O)C(C)c1ccc2c(c1)Sc1ccccc1CC2` (stereo not drawn) [Compound 8, Ethyl 2-(10,11-dihydrodibenzo[b,f]thiepin-3-yl)-propionate], the inhibition in vivo at 10 mg/kg runs as follows: under setting [1], 43.2%; under setting [2], 37.8%; under setting [3], 26.9%; under setting [4], 20.1%; under setting [5], 15.8%; under setting [6], 15.1%.
As for `CC(C(=O)O)c1ccc2c(c1)Sc1ccccc1CC2` (stereo not drawn) [Compound 9, 2-(10,11-dihydrodibenzo[b,f]thiepin-3-yl)-propionic acid], the inhibition in vivo at 10 mg/kg by setting is: under setting [1], 52.1%; under setting [2], 41%; under setting [3], 27.5%; under setting [4], 21.3%; under setting [5], 16.6%; under setting [6], 16.3%.
`CC(C(N)=O)c1ccc2c(c1)C(=O)Cc1ccccc1O2` (stereo not drawn) [Compound 10, 2-(10,11-dihydro-11-oxodibenzo[b,f]oxepin-2-yl)-propionamide]: the inhibition in vivo at 10 mg/kg turned out to be 71.2% under setting [1]; 69.3% under setting [2]; 76.3% under setting [3]; 76.7% under setting [4]; 56.4% under setting [5]; 34.4% under setting [6].
As for `CCOC(=O)C(C)c1ccc2c(c1)C(=O)Cc1ccccc1O2` (stereo not drawn) [Compound 11, Ethyl 2-(10,11-dihydro-11-oxodibenzo[b,f]oxepin-2-yl)-propionate], the inhibition in vivo at 10 mg/kg under setting [1] was 21.2%; the inhibition in vivo at 10 mg/kg under setting [2] was determined as 56.8%; the inhibition in vivo at 10 mg/kg under setting [3] was 64.9%; the inhibition in vivo at 10 mg/kg under setting [4] was determined as 70%; the inhibition in vivo at 10 mg/kg under setting [5] came to 62.8%; the inhibition in vivo at 10 mg/kg under setting [6] stood at 52.6%.
As to `CC(C(=O)O)c1ccc2c(c1)C(=O)Cc1ccccc1O2` (stereo not drawn) [Compound 12, 2-(10,11-dihydro-11-oxodibenzo[b,f]oxepin-2-yl)-propionic acid], the inhibition in vivo at 10 mg/kg was 34.2% under setting [7]; 58.3% under setting [8]; 79.4% under setting [9]; 83.1% under setting [10]; 71.1% under setting [11]; 51.4% under setting [12].
For `CC(C(=O)O)c1ccc2c(c1)CCc1ccccc1O2` (stereo not drawn) [Compound 13, 2-(10,11-dihydrodibenzo[b,f]oxepin-2-yl)-propionic acid], the inhibition in vivo at 10 mg/kg is, setting by setting: under setting [1], 42.4%; under setting [2], 55.5%; under setting [3], 65.4%; under setting [4], 63.3%; under setting [5], 49.1%; under setting [6], 33.3%.
`CCOC(=O)C(C)c1ccc2c(c1)CCc1ccccc1O2` (stereo not drawn) [Compound 14, Ethyl 2-(10,11-dihydrodibenzo[b,f]oxepin-2-yl)-propionate]: the inhibition in vivo at 10 mg/kg reads like this: under setting [1], 48.6%; under setting [2], 67.6%; under setting [3], 60.3%; under setting [4], 53.2%; under setting [5], 35.8%; under setting [6], 26%.
Take `CC(C(N)=O)c1ccc2c(c1)CCc1ccccc1O2` (stereo not drawn) [Compound 15, 2-(10,11-dihydrodibenzo[b,f]oxepin-2-yl)-propionamide]: the inhibition in vivo at 10 mg/kg is, setting by setting: under setting [1], 36.1%; under setting [2], 44.1%; under setting [3], 53.3%; under setting [4], 48.7%; under setting [5], 33%; under setting [6], 27.2%.
Turning to `CC(C(=O)O)c1ccc2c(c1)Oc1ccccc1CC2=O` (stereo not drawn) [Compound 16, 2-(10,11-dihydro-11-oxodibenzo[b,f]oxepin-3-yl)-propionic acid], the inhibition in vivo at 10 mg/kg reads like this: under setting [1], 53.6%; under setting [2], 49.9%; under setting [3], 50.7%; under setting [4], 46.2%; under setting [5], 37%; under setting [6], 26.2%.
As for `CC(C(N)=O)c1cccc2c1Oc1ccccc1CC2=O` (stereo not drawn) [Compound 17, 2-(10,11-dihydro-11-oxodibenzo[b,f]oxepin-4-yl)-propionamide], the inhibition in vivo at 10 mg/kg worked out at 65.9% under setting [1]; 49.4% under setting [2]; 35.4% under setting [3]; 29% under setting [4]; 17.2% under setting [5]; 13% under setting [6].
For the compound `CC(C(=O)O)c1cccc2c1Oc1ccccc1CC2=O` (stereo not drawn) [Compound 18, 2-(10,11-dihydro-11-oxodibenzo[b,f]oxepin-4-yl)-propionic acid], the inhibition in vivo at 8 mg/kg runs as follows: (1 hr, read-out: Inhibition (%) 1 hr) 34.3%; (2 hr, read-out: Inhibition (%) 2 hr) 36.4%; (3 hr, read-out: Inhibition (%) 3 hr) 38.3%; (4 hr, read-out: Inhibition (%) 4 hr) 36.1%; (5 hr, read-out: Inhibition (%) 5 hr) 36.1%; (6 hr, read-out: Inhibition (%) 6 hr) 35.1%.
On to `CC(C(=O)O)c1cccc2c1Oc1ccccc1CC2` (stereo not drawn) [Compound 19, 2-(10,11-dihydrodibenzo[b,f]oxepin-4-yl)-propionic acid], for which the inhibition in vivo at 10 mg/kg runs as follows: under setting [1], 45.1%; under setting [2], 51.3%; under setting [3], 28.2%; under setting [4], 25.1%; under setting [5], 18.7%; under setting [6], 10.2%.
